Results reported in patent US20240393292A1, “ALLERGY ANTIGEN AND EPITOPE THEREOF” (HOYU CO., LTD., priority 2019, published 2024).

Test system: IgE antibodies from patients
Assay: Wheat epitope mapping (2): overlapping 10-amino-acid peptide fragments shifted by one amino acid;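 on Rank of partial sequence as epitope binding to IgE antibody: key = sequence deemed particularly important within the common 15-residue sequence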;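 on epitope sequence binding to IgE antibody, rank (Key/Preferably/More preferably): key of grades: preferably = shorter partial sequence still acting as epitope; more preferably = sequence improving IgE binding; key = particularly important sequence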
Type: binding, human
In short: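 Cellulose-bound 10-mer peptides offset by one residue were probed with patient serum IgE and detected by chemiluminescence. Secondary-antibody-only signals were subtracted per peptide. Residual binding was expressed as % of the parent overlapping peptide, scored as none (<30%), poor (30–<50%), somewhat poor (50–<70%) or retained (≥70%).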

[1] = serum of patient G9 (adult, general immediate type allergy to wheat)
[2] = serum of patient P26 (WDEIA), sequence without X
[3] = serum of patient P21 (WDEIA), sequence without X
[4] = serum of patient P18 (WDEIA), sequence without X
[5] = serum of patient G7 (adult, general immediate type allergy to wheat), sequence without X
[6] = serum of patient G9 (adult, general immediate type allergy to wheat), partial sequence
[7] = serum of patient P36 (WDEIA), sequence without X
[8] = serum of patient P34 (WDEIA), sequence without X

Substance: 1905 (VPLVQ; REGION 1..5: note = epitope) [compound 1905]
- epitope sequence binding to IgE antibody, rank (Key/Preferably/More preferably) (serum of patient P4 (WDEIA)): Key

Substance: 1786 (KEVSSYLKK; REGION 1..9: note = epitope) [compound 1786]
- epitope sequence binding to IgE antibody, rank (Key/Preferably/More preferably) [1]: Preferably

Substance: 2648 (NKRSFK; REGION 1..6: note = epitope) [compound 2648]
- Epitope sequence binding to IgE antibody, rank of the sequence (serum of patient P26 (WDEIA), partial sequence): Key

Substance: 2435 (KAWSGKTEN; REGION 1..9: note = epitope) [compound 2435]
- Epitope sequence binding to IgE antibody, rank of the sequence (Key/Preferably/More preferably) [2]: Preferably

Substance: 1581 (PFPQTQQPQ; REGION 1..9: note = epitope) [compound 1581]
- Rank of partial sequence as epitope binding to IgE antibody (serum of patient P20 (WDEIA), sequence without X): More preferably

Substance: 1446 (PQQPISQQQ; REGION 1..9: note = epitope) [compound 1446]
- Rank of partial sequence as epitope binding to IgE antibody [3]: Preferably

Substance: 1689 (SQVIIM; REGION 1..6: note = epitope) [compound 1689]
- Rank of partial sequence as epitope binding to IgE antibody (serum of patient P14 (WDEIA), sequence without X): Key

Substance: 1443 (SQQQA; REGION 1..5: note = epitope) [compound 1443]
- Rank of partial sequence as epitope binding to IgE antibody [4]: Key

Substance: 1898 (QQFPGQQQ; REGION 1..8: note = epitope) [compound 1898]
- epitope sequence binding to IgE antibody, rank (Key/Preferably/More preferably) (serum of patient P2 (WDEIA)): Key

Substance: 1500 (YLQPQQPIS; REGION 1..9: note = epitope) [compound 1500]
- Rank of partial sequence as epitope binding to IgE antibody [5]: Preferably

Substance: 1405 (YLQPQQPISQ; REGION 1..10: note = epitope) [compound 1405]
- Epitope sequence binding to IgE antibody, rank of the sequence (Key/Preferably/More preferably/Further preferably) (serum of patient P2 (WDEIA), sequence without X): Key

Substance: 1825 (LPKF; REGION 1..4: note = epitope) [compound 1825]
- epitope sequence binding to IgE antibody, rank (Key/Preferably/More preferably) (serum of patient P52 (child, general immediate type allergy to wheat)): Key

Substance: 1447 (QQPISQQQ; REGION 1..8: note = epitope) [compound 1447]
- Rank of partial sequence as epitope binding to IgE antibody [3]: Key

Substance: 1605 (AQLEAIRS; REGION 1..8: note = epitope) [compound 1605]
- Rank of partial sequence as epitope binding to IgE antibody (serum of patient P10 (WDEIA), sequence without X): More preferably

Substance: 1761 (YLKKVGYN; REGION 1..8: note = epitope) [compound 1761]
- epitope sequence binding to IgE antibody, rank (Key/Preferably/More preferably) (serum of patient P18 (WDEIA)): Key

Substance: 2611 (QSTYQLVQQL; REGION 1..10: note = epitope) [compound 2611]
- Epitope sequence binding to IgE antibody, rank of the sequence [6]: Key

Substance: 1420 (SQQQA; REGION 1..5: note = epitope) [compound 1420]
- Epitope sequence binding to IgE antibody, rank of the sequence (serum of patient P9 (WDEIA), sequence without X): Key

Substance: 2418 (TEIVL; REGION 1..5: note = epitope) [compound 2418]
- Epitope sequence binding to IgE antibody, rank of the sequence (Key/Preferably/More preferably) [5]: Key

Substance: 2285 (GIDK; REGION 1..4: note = epitope) [compound 2285]
- Epitope sequence binding to IgE antibody, rank of the sequence (Key/Preferably/More preferably) [2]: Key

Substance: 1822 (SGKELEALPK; REGION 1..10: note = epitope) [compound 1822]
- epitope sequence binding to IgE antibody, rank (Key/Preferably/More preferably) (serum of patient P35 (WDEIA)): Key

Substance: 2658 (FEKEAAE; REGION 1..7: note = epitope) [compound 2658]
- Epitope sequence binding to IgE antibody, rank of the sequence (serum of patient P35 (WDEIA), partial sequence): Key

Substance: 1353 (NVEN; REGION 1..4: note = epitope) [compound 1353]
- Epitope sequence binding to IgE antibody, rank of the sequence (serum of patient P35 (WDEIA), sequence without X): Key

Substance: 1467 (YLQPQQPIS; REGION 1..9: note = epitope) [compound 1467]
- Rank of partial sequence as epitope binding to IgE antibody [2]: Preferably

Substance: 1216 (PQQPP; REGION 1..5: note = epitope) [compound 1216]
- Epitope sequence binding to IgE antibody, rank of the sequence (serum of patient P7 (WDEIA), sequence without X): Preferably

Substance: 1630 (PDKVPFVPIS; REGION 1..10: note = epitope) [compound 1630]
- Rank of partial sequence as epitope binding to IgE antibody (serum of patient P27 (WDEIA), sequence without X): Key

Substance: 1647 (YNPD; REGION 1..4: note = epitope) [compound 1647]
- Rank of partial sequence as epitope binding to IgE antibody [7]: Key

Substance: 2373 (TEIV; REGION 1..4: note = epitope) [compound 2373]
- Epitope sequence binding to IgE antibody, rank of the sequence (Key/Preferably/More preferably) [2]: Key

Substance: 1936 (QVPLVQQ; REGION 1..7: note = epitope) [compound 1936]
- epitope sequence binding to IgE antibody, rank (Key/Preferably/More preferably) (serum of patient P19 (WDEIA)): Key

Substance: 1778 (KVGY; REGION 1..4: note = epitope) [compound 1778]
- epitope sequence binding to IgE antibody, rank (Key/Preferably/More preferably) (serum of patient G2 (adult, general immediate type allergy to wheat)): Key

Substance: 2417 (RCAYVTEIVL; REGION 1..10: note = epitope) [compound 2417]
- Epitope sequence binding to IgE antibody, rank of the sequence (Key/Preferably/More preferably) [5]: Preferably

Substance: 1189 (QQFPPQ; REGION 1..6: note = epitope) [compound 1189]
- Epitope sequence binding to IgE antibody, rank of the sequence [3]: Key

Substance: 1657 (VPFVPISG; REGION 1..8: note = epitope) [compound 1657]
- Rank of partial sequence as epitope binding to IgE antibody (serum of patient P53 (child, general immediate type allergy to wheat), sequence without X): Key

Substance: 1391 (QPLPPQQQ; REGION 1..8: note = epitope) [compound 1391]
- Epitope sequence binding to IgE antibody, rank of the sequence (serum of patient P15 (WDEIA), sequence without X): Key

Substance: 2283 (ERFEKE; REGION 1..6: note = epitope) [compound 2283]
- Epitope sequence binding to IgE antibody, rank of the sequence (Key/Preferably/More preferably) [4]: Key

Substance: 2700 (YKGPTL; REGION 1..6: note = epitope) [compound 2700]
- Epitope sequence binding to IgE antibody, rank of the sequence [6]: Key

Substance: 1743 (EAAN; REGION 1..4: note = epitope) [compound 1743]
- epitope sequence binding to IgE antibody, rank (Key/Preferably/More preferably) (serum of patient G4 (adult, general immediate type allergy to wheat)): Key

Substance: 1241 (PIQQQP; REGION 1..6: note = epitope) [compound 1241]
- Epitope sequence binding to IgE antibody, rank of the sequence [2]: Key

Substance: 2575 (QLVQ; REGION 1..4: note = epitope) [compound 2575]
- Epitope sequence binding to IgE antibody, rank of the sequence (serum of patient P28 (WDEIA), partial sequence): Key

Substance: 2515 (SFQPSQ; REGION 1..6: note = epitope) [compound 2515]
- Epitope sequence binding to IgE antibody, rank of the sequence (serum of patient P51 (child, general immediate type allergy to wheat), partial sequence): Key

Substance: 1774 (YLKKVGYNP; REGION 1..9: note = epitope) [compound 1774]
- epitope sequence binding to IgE antibody, rank (Key/Preferably/More preferably) (serum of patient P55 (child, general immediate type allergy to wheat)): Preferably

Substance: 1683 (YNPDKVPF; REGION 1..8: note = epitope) [compound 1683]
- Rank of partial sequence as epitope binding to IgE antibody (serum of patient G9 (adult, general immediate type allergy to wheat), sequence without X): Key

Substance: 2735 (GIGTVPVGRV; REGION 1..10: note = epitope) [compound 2735]
- Epitope sequence binding to IgE antibody, rank of the sequence (serum of patient P29 (WDEIA), partial sequence): Key

Substance: 1595 (QPQQPF; REGION 1..6: note = epitope) [compound 1595]
- Rank of partial sequence as epitope binding to IgE antibody (serum of patient P52 (child, general immediate type allergy to wheat), sequence without X): More preferably

Substance: 1882 (TVRTLQRT; REGION 1..8: note = epitope) [compound 1882]
- epitope sequence binding to IgE antibody, rank (Key/Preferably/More preferably) (serum of patient P34 (WDEIA)): Preferably

Substance: 1492 (YLQPQQPISQ; REGION 1..10: note = epitope) [compound 1492]
- Rank of partial sequence as epitope binding to IgE antibody [7]: Preferably

Substance: 1752 (ANFTSQVIIM; REGION 1..10: note = epitope) [compound 1752]
- epitope sequence binding to IgE antibody, rank (Key/Preferably/More preferably) (serum of patient G8 (adult, general immediate type allergy to wheat)): Key

Substance: 2742 (YKIGGIGTVP; REGION 1..10: note = epitope) [compound 2742]
- Epitope sequence binding to IgE antibody, rank of the sequence (serum of patient P33 (WDEIA), partial sequence): Preferably

Substance: 2395 (TEIV; REGION 1..4: note = epitope) [compound 2395]
- Epitope sequence binding to IgE antibody, rank of the sequence (Key/Preferably/More preferably) [8]: Key

Substance: 1787 (KEVSSYLK; REGION 1..8: note = epitope) [compound 1787]
- epitope sequence binding to IgE antibody, rank (Key/Preferably/More preferably) [1]: Key

Substance: 2501 (SFQPSQLNPQ; REGION 1..10: note = epitope) [compound 2501]
- Epitope sequence binding to IgE antibody, rank of the sequence (serum of patient P8 (WDEIA), partial sequence): Key

Substance: 2358 (TEIV; REGION 1..4: note = epitope) [compound 2358]
- Epitope sequence binding to IgE antibody, rank of the sequence (Key/Preferably/More preferably) [4]: Key

Substance: 2327 (RYDAIRAII; REGION 1..9: note = epitope) [compound 2327]
- Epitope sequence binding to IgE antibody, rank of the sequence (Key/Preferably/More preferably) [8]: Key

Substance: 1906 (QFPGQQQ; REGION 1..7: note = epitope) [compound 1906]
- epitope sequence binding to IgE antibody, rank (Key/Preferably/More preferably) (serum of patient P4 (WDEIA)): Key

Substance: 2586 (LQQSTYQL; REGION 1..8: note = epitope) [compound 2586]
- Epitope sequence binding to IgE antibody, rank of the sequence (serum of patient P32 (WDEIA), partial sequence): Key
